Some test systems named below: HCC-2998 colon; MDA-MB-435; SNB-75 CNS; SR leukemia; NCI-H226 lung; NCI-H522 lung; HL-60(TB) leukemia; UACC-62 melanoma; SN12C renal; OVCAR-3 ovarian; OVCAR-5 ovarian; SK-MEL-28 melanoma; SK-MEL-2 melanoma; HT29 colon; CCRF-CEM leukemia; LOX IMVI melanoma; 786-0 renal; U251 CNS; HCT-15 colon; SW-620 colon.
Experiment in all cases: NCI-60 cell line screen, 48 h

Structures are written as SMILES.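 All cell lines were grown in 96-well plates and treated with compound for 48 hours. TGI: concentration producing complete growth inhibition.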

In the case of `CN(C)CC1(Cc2ccccc2)CCC(Cc2ccccc2)C1=O` (stereo not given), the TGI in the assay on HCC-2998 colon stood at 21.4 µM; in the assay on MDA-MB-435, 23.8 µM; with SNB-75 CNS, 30 µM; with SR leukemia, 33.3 µM; with NCI-H226 lung, 37.9 µM; in the assay with NCI-H522 lung it was 7.59 µM. Also, the TGI was 12.5 µM in the assay with HL-60(TB) leukemia; 32.5 µM in the assay on UACC-62 melanoma; 23.9 µM in the assay on SN12C renal; 16.2 µM with OVCAR-3 ovarian; 32.8 µM with OVCAR-5 ovarian; 26.6 µM with SK-MEL-28 melanoma. Also, the TGI with SK-MEL-2 melanoma is 27.3 µM; in the assay with HT29 colon, 28.6 µM; in the assay with CCRF-CEM leukemia, 12.5 µM; in the assay with LOX IMVI melanoma it was 15.7 µM; with 786-0 renal it was 4.37 µM; in the assay with U251 CNS, 31.8 µM. Moreover, the values for the TGI in the assay with HCT-15 colon and with SW-620 colon were 13.3 µM and 11.1 µM, respectively.
`Clc1ccc(C=NC23CC4CC(CC(C4)C2)C3)cc1Cl`: the TGI with HCC-2998 colon, with MDA-MB-435, with SNB-75 CNS, with SR leukemia, with NCI-H226 lung and in the assay on NCI-H522 lung was more than 10 µM each time. The TGI in the assay on HL-60(TB) leukemia, with UACC-62 melanoma, in the assay on SN12C renal, in the assay with OVCAR-3 ovarian, with OVCAR-5 ovarian and in the assay with SK-MEL-28 melanoma was more than 10 µM throughout. The TGI in the assay with SK-MEL-2 melanoma, in the assay with HT29 colon, in the assay on CCRF-CEM leukemia, in the assay with LOX IMVI melanoma, in the assay on 786-0 renal and in the assay on U251 CNS was more than 10 µM throughout. Moreover, the TGI in the assay on HCT-15 colon and in the assay on SW-620 colon was more than 10 µM each time.
For `Cn1c2ccccc2n2c3ccccc3c(=O)c(C#N)c12`, the TGI in the assay on HCC-2998 colon was more than 100 µM; in the assay with MDA-MB-435 it was more than 100 µM; in the assay on SNB-75 CNS it was more than 96.6 µM; in the assay on SR leukemia, 48.3 µM; in the assay with NCI-H226 lung, 34.1 µM; in the assay with NCI-H522 lung, 58.1 µM. The TGI with HL-60(TB) leukemia is more than 100 µM; in the assay on UACC-62 melanoma, more than 58.3 µM; with SN12C renal it was more than 100 µM; with OVCAR-3 ovarian, more than 100 µM; in the assay with OVCAR-5 ovarian, more than 100 µM; in the assay on SK-MEL-28 melanoma it was more than 100 µM. In addition, the TGI with SK-MEL-2 melanoma was more than 100 µM; with HT29 colon, more than 100 µM; in the assay with CCRF-CEM leukemia, more than 100 µM; in the assay on LOX IMVI melanoma it was more than 56.1 µM; with 786-0 renal, more than 59.9 µM; in the assay on U251 CNS, 55.5 µM. Besides, the TGI in the assay with HCT-15 colon and in the assay on SW-620 colon was more than 100 µM in each case.
For `Cc1ccc(CC(Cc2ccc(C)cc2C(=O)O)C(=O)O)cc1` (stereo not given), the TGI with HCC-2998 colon, in the assay on MDA-MB-435, in the assay on SNB-75 CNS, with SR leukemia, with NCI-H226 lung and with NCI-H522 lung was more than 100 µM throughout. For the same compound, the TGI in the assay with HL-60(TB) leukemia, with UACC-62 melanoma, in the assay on SN12C renal, in the assay with OVCAR-3 ovarian, in the assay on OVCAR-5 ovarian and in the assay with SK-MEL-28 melanoma was more than 100 µM in each case. Besides, the TGI in the assay on SK-MEL-2 melanoma, with HT29 colon, in the assay on CCRF-CEM leukemia, with LOX IMVI melanoma, in the assay with 786-0 renal and in the assay with U251 CNS was more than 100 µM in each case. Further, the TGI in the assay with HCT-15 colon and in the assay on SW-620 colon was more than 100 µM in each case.
As for `C[N+](C)(C)CC(=O)N/N=C(/CC1OC(=O)c2ccccc21)c1ccccc1O` (stereo not given), the TGI with HCC-2998 colon was 50.9 µM; with MDA-MB-435 it was 97.8 µM; with SNB-75 CNS, more than 100 µM; with SR leukemia it was 34 µM; in the assay on NCI-H226 lung, 57.4 µM; with NCI-H522 lung, more than 100 µM. For the same compound, the TGI is 52.3 µM with HL-60(TB) leukemia; 72.1 µM in the assay with UACC-62 melanoma; more than 100 µM in the assay on SN12C renal; more than 100 µM in the assay on OVCAR-3 ovarian; more than 100 µM with OVCAR-5 ovarian; more than 100 µM in the assay with SK-MEL-28 melanoma. Moreover, the TGI with SK-MEL-2 melanoma was more than 100 µM; in the assay with HT29 colon, more than 100 µM; in the assay with CCRF-CEM leukemia, 49.3 µM; with LOX IMVI melanoma, 43.2 µM; in the assay with 786-0 renal, 86.5 µM; in the assay on U251 CNS, 72.3 µM. Moreover, the TGI with HCT-15 colon and in the assay on SW-620 colon was more than 100 µM throughout.
In the case of `Nc1nc(NCC2(CO)CCC2)cc(=O)[nH]1`, the TGI in the assay on HCC-2998 colon, in the assay with MDA-MB-435, in the assay with SNB-75 CNS, with SR leukemia, with NCI-H226 lung and in the assay on NCI-H522 lung was more than 100 µM each time. For the same compound, the TGI in the assay on HL-60(TB) leukemia, with UACC-62 melanoma, in the assay with SN12C renal, with OVCAR-3 ovarian, with OVCAR-5 ovarian and with SK-MEL-28 melanoma was more than 100 µM throughout. For the same compound, the TGI in the assay with SK-MEL-2 melanoma, in the assay on HT29 colon, with CCRF-CEM leukemia, in the assay on LOX IMVI melanoma, with 786-0 renal and in the assay on U251 CNS was more than 100 µM each time. In addition, the TGI in the assay with HCT-15 colon and with SW-620 colon was more than 100 µM throughout.
With `COc1cc2c(c(OC)c1OC)C(=O)[C@H](Br)[C@H]2NC(=O)NCCCl`, the TGI in the assay with HCC-2998 colon, with MDA-MB-435, with SNB-75 CNS, in the assay with SR leukemia, in the assay with NCI-H226 lung and with NCI-H522 lung was more than 100 µM throughout. Further, the TGI in the assay with HL-60(TB) leukemia, with UACC-62 melanoma, in the assay on SN12C renal, in the assay on OVCAR-3 ovarian, in the assay with OVCAR-5 ovarian and in the assay with SK-MEL-28 melanoma was more than 100 µM in each case. Further, the TGI in the assay with SK-MEL-2 melanoma, with HT29 colon, in the assay with CCRF-CEM leukemia, in the assay on LOX IMVI melanoma, in the assay with 786-0 renal and in the assay on U251 CNS was more than 100 µM throughout. Also, the TGI in the assay on HCT-15 colon and with SW-620 colon was more than 100 µM each time.

For the origin of these results see PubChem BioAssay (NCI).
